Assay results: patent publication US12653191B2, “Active compound combinations” (Bayer Aktiengesellschaft, priority 2020, dated 2026)
Where two headings read alike, the source gives them in different places.

Experiments:
Alternaria alternata = test: in vitro-Test with fungal microorganisms, Method B (tables A13-A22); assay type: cell-based; details: for inhibition of growth at 0.008 ppm / inhibition of growth at 0.04 ppm / inhibition of growth at 0.2 ppm / inhibition of growth at 1 ppm: Alternaria alternata, read-out: Efficacy
Protocol: (§1) Example: In Vitro-Test with Fungal Microorganisms
(§2) Wells of 96-well microtiter plates are filled with 30 μl of a preparation of test compound or compound combination in methanol+emulsifier alkylaryl-polyglycol-ether. Thereafter, the solvent is evaporated in a hood. At the next step, 200 μl of liquid growth medium is given, that has been amended with an appropriate concentration of spores or mycelium suspension of the test fungus.
(§3) With the aid of a photometer, the extinction in all wells is measured at the wavelength of 600 nm.
(§4) The microtiter plates are incubated for 3 to 7 days at 20° C. and 85% relative humidity. After the incubation inhibition of growth is determined photometrically. Efficacy is calculated in relation to the untreated control, 0% efficacy means fungal growth as high as in untreated control while 100% efficacy means no fungal growth is measured.
(§5) The data in tables A1 to A12, B1 to B14, C1 to C10, D1 to D8, E1 to E8, F1 to F11, G1 to G4, H1 to H4 and I1 to I5 were collected according to Method A. The data in tables A13 to A22, B15 to B18, C11 to C20, E9 to E16, F12 to F15, G5 to G15, H5 to H8, I6 to I11 and J1 to J11 were collected according to Method B.

Botrytis cinerea [1] = test: in vitro-Test with fungal microorganisms, Method B (tables B15-B18); assay type: cell-based
Protocol: as §1, §2, §3, §4, §5

Fusarium culmorum = test: in vitro-Test with fungal microorganisms, Method B (tables G5-G15); assay type: cell-based; details: for inhibition of growth at 0.008 ppm / inhibition of growth at 0.04 ppm / inhibition of growth at 0.2 ppm / inhibition of growth at 1 ppm: Fusarium culmorum, alone, read-out: Efficacy
Protocol: as §1, §2, §3, §4, §5

[2] = test system: Ustilago segetum var. avenae; test: in vitro-Test with fungal microorganisms, Method B (tables I6-I11); assay type: cell-based; details: alone
Protocol: as §1, §2, §3, §4, §5

Alternaria alternate = test: in vitro-Test with fungal microorganisms, Method A (tables A1-A12); assay type: cell-based, Alternaria alternata; details: Alternaria, applied alone, read-out: Efficacy %
Protocol: as §1
as §2, with “10” for “30”, “100” for “200”, “potato dextrose” for “growth”, “given into each well,” for “given,”
(§6) With the aid of a photometer, the extinction in all wells is measured at the wavelength of 620 nm.
as §4, with “incubated” for “incubated for 3 to 7 days”, “The” for “After the incubation”, “again photometrically 3-5 days after the application.” for “photometrically.”
as §5

Botrytis cinerea [3] = test: in vitro-Test with fungal microorganisms, Method A (tables B1-B14); assay type: cell-based; details: Botrytis cinerea, read-out: Efficacy
Protocol: as §1
as §2, with “10” for “30”, “100” for “200”, “potato dextrose” for “growth”, “given into each well,” for “given,”
as §6
as §4, with “incubated” for “incubated for 3 to 7 days”, “The” for “After the incubation”, “again photometrically 3-5 days after the application.” for “photometrically.”
as §5

Cercospora beticola [4] = test: in vitro-Test with fungal microorganisms, Method A (tables C1-C10); assay type: cell-based; details: Cercospora beticola, read-out: Efficacy %
Protocol: as §1
as §2, with “10” for “30”, “100” for “200”, “potato dextrose” for “growth”, “given into each well,” for “given,”
as §6
as §4, with “incubated” for “incubated for 3 to 7 days”, “The” for “After the incubation”, “again photometrically 3-5 days after the application.” for “photometrically.”
as §5

Diaporthe citri = test: in vitro-Test with fungal microorganisms, Method A (tables F1-F11); assay type: cell-based; details: Diaporthe citri, single active, read-out: Efficacy
Protocol: as §1
as §2, with “10” for “30”, “100” for “200”, “potato dextrose” for “growth”, “given into each well,” for “given,”
as §6
as §4, with “incubated” for “incubated for 3 to 7 days”, “The” for “After the incubation”, “again photometrically 3-5 days after the application.” for “photometrically.”
as §5

[5] = test system: Ustilago segetum var. avenae; test: in vitro-Test with fungal microorganisms, Method A (tables I1-I5); assay type: cell-based; details: alone, read-out: Efficacy %
Protocol: as §1
as §2, with “10” for “30”, “100” for “200”, “potato dextrose” for “growth”, “given into each well,” for “given,”
as §6
as §4, with “incubated” for “incubated for 3 to 7 days”, “The” for “After the incubation”, “again photometrically 3-5 days after the application.” for “photometrically.”
as §5

Colletotrichum coccodes = test: in vitro-Test with fungal microorganisms, Method B (tables J1-J11); assay type: cell-based; details: Colletotrichum coccodes, applied alone, read-out: Efficacy %
Protocol: as §1, §2, §3, §4, §5

Cercospora beticola [6] = test: in vitro-Test with fungal microorganisms, Method B (tables C11-C20); assay type: cell-based
Protocol: as §1, §2, §3, §4, §5

Cordana musae = test: in vitro-Test with fungal microorganisms, Method B (tables E9-E16); assay type: cell-based; details: Neocordana musae, single active, read-out: Efficacy
Protocol: as §1, §2, §3, §4, §5

[7] = Botrytis cinerea, 1 ppm alone, read-out: Efficacy %

## N#Cc1ccc(Oc2ccc(C(F)(F)C(O)(Cn3[nH]cnc3=S)c3ccc(F)cc3F)nc2)cc1 (stereo not shown) [fluoxytioconazole]
Alternaria alternata; single compound, 0.008 ppm
  Efficacy: 5%
Botrytis cinerea [1]; 0.008 ppm alone
  Efficacy %: 0%
Botrytis cinerea [1]; 0.2 ppm alone
  Efficacy %: 0%
Botrytis cinerea [1]; 1 ppm alone
  Efficacy %: 13%
Fusarium culmorum; 0.008 ppm alone
  Efficacy: 12%
Fusarium culmorum; 1 ppm alone
  Efficacy: 27%
[2]; 0.008 ppm
  Efficacy %: 8%
[2]; 0.04 ppm
  Efficacy %: 35%
[2]; 0.2 ppm
  Efficacy %: 100%

## Cc1ccc(CC2CON=C(c3cc(C)nnc3Oc3cccc(C4CC4)c3F)N2)c(C)c1 (racemic) [Compound I-052, rac-3-[3-(3-cyclopropyl-2-fluorophenoxy)-6-methylpyridazin-4-yl]-5-[(2,4-dimethylphenyl)methyl]-5,6-dihydro-4H-1,2,4-oxadiazine]
Alternaria alternate; 0.0008 ppm
  inhibition of growth at 0.0008 ppm: 2%
Alternaria alternate; 0.004 ppm
  inhibition of growth at 0.004 ppm: 0%
Alternaria alternate; 0.02 ppm
  inhibition of growth at 0.02 ppm: 9%
Alternaria alternate; 0.1 ppm
  inhibition of growth at 0.1 ppm: 72%
Botrytis cinerea [3]; 0.0008 ppm
  inhibition of growth at 0.0008 ppm: 0%
Botrytis cinerea [3]; 0.004 ppm
  inhibition of growth at 0.004 ppm: 0%
Botrytis cinerea [3]; 0.02 ppm
  inhibition of growth at 0.02 ppm: 0%
Botrytis cinerea [3]; 0.1 ppm
  inhibition of growth at 0.1 ppm: 88%
Cercospora beticola [4]; 0.0008 ppm alone
  inhibition of growth at 0.0008 ppm: 0%
Cercospora beticola [4]; 0.004 ppm alone
  inhibition of growth at 0.004 ppm: 0%
Cercospora beticola [4]; 0.02 ppm alone
  inhibition of growth at 0.02 ppm: 0%
Cercospora beticola [4]; 0.1 ppm alone
  inhibition of growth at 0.1 ppm: 20%
Diaporthe citri; 0.0008 ppm
  inhibition of growth at 0.0008 ppm: 0%
Diaporthe citri; 0.004 ppm
  inhibition of growth at 0.004 ppm: 0%
Diaporthe citri; 0.02 ppm
  inhibition of growth at 0.02 ppm: 100%
Diaporthe citri; 0.1 ppm
  inhibition of growth at 0.1 ppm: 100%
[5]; 0.0008 ppm
  inhibition of growth at 0.0008 ppm: 2%
[5]; 0.004 ppm
  inhibition of growth at 0.004 ppm: 3%
[5]; 0.02 ppm
  inhibition of growth at 0.02 ppm: 0%
[5]; 0.1 ppm
  inhibition of growth at 0.1 ppm: 0%

## Cc1ccc(C[C@@H]2CON=C(c3cc(C)nnc3Oc3cccc(Cl)c3F)N2)c(Cl)c1 [Compound I-338, (5R)-3-[3-(3-chloro-2-fluorophenoxy)-6-methylpyridazin-4-yl]-5-(2-chloro-4-methylbenzyl)-5,6-dihydro-4H-1,2,4-oxadiazine]
Alternaria alternata; 0.008 ppm
  Efficacy: 0%
  inhibition of growth at 0.008 ppm: 0%
Botrytis cinerea [1]; [7]
  inhibition of growth at 1 ppm: 85%
Fusarium culmorum
  inhibition of growth at 0.008 ppm: 22%
  inhibition of growth at 0.04 ppm: 21%
  inhibition of growth at 0.2 ppm: 0%
  inhibition of growth at 1 ppm: 0%

## Cc1ccc(C[C@H]2CON=C(c3cc(C)nnc3Oc3cccc(C4CC4)c3F)N2)c(C)c1 [Compound I-130, (5S)-3-[3-(3-cyclopropyl-2-fluorophenoxy)-6-methylpyridazin-4-yl]-5-(2,4-dimethylbenzyl)-5,6-dihydro-4H-1,2,4-oxadiazine]
Alternaria alternata; 0.008 ppm
  inhibition of growth at 0.008 ppm: 25%
Alternaria alternata
  inhibition of growth at 0.04 ppm: 100%
  inhibition of growth at 0.2 ppm: 100%
  inhibition of growth at 1 ppm: 100%
Botrytis cinerea [1]; Botrytis cinerea, 0.008 ppm alone, read-out: Efficacy %
  inhibition of growth at 0.008 ppm: 96%
Botrytis cinerea [1]; Botrytis cinerea, 0.04 ppm alone, read-out: Efficacy %
  inhibition of growth at 0.04 ppm: 100%
Botrytis cinerea [1]; Botrytis cinerea, 0.2 ppm alone, read-out: Efficacy %
  inhibition of growth at 0.2 ppm: 100%
Botrytis cinerea [1]; [7]
  inhibition of growth at 1 ppm: 100%
Colletotrichum coccodes; 0.008 ppm
  inhibition of growth at 0.008 ppm: 94%
Colletotrichum coccodes; 0.04 ppm
  inhibition of growth at 0.04 ppm: 100%
Colletotrichum coccodes; 0.2 ppm
  inhibition of growth at 0.2 ppm: 100%
Colletotrichum coccodes; 1 ppm
  inhibition of growth at 1 ppm: 100%

## CS(=O)(=O)Oc1cccc(Cl)c1C1CC(c2csc(C3CCN(C(=O)Cn4nc(C(F)F)cc4C(F)F)CC3)n2)=NO1 (stereo not shown) [fluoxapiprolin]
Alternaria alternata; 4 ppm
  Efficacy: 0%
Alternaria alternata; 20 ppm
  Efficacy: 1%
Alternaria alternata; single compound, 0.8 ppm
  Efficacy: 0%
Botrytis cinerea [1]; 0.8 ppm, alone
  Efficacy %: 0%
Botrytis cinerea [1]; 4 ppm alone
  Efficacy %: 6%
Botrytis cinerea [1]; 20 ppm alone
  Efficacy %: 5%
Cercospora beticola [6]; 20 ppm
  Efficacy %: 0%

## CCO[PH](=O)O [fosetyl-al]
Botrytis cinerea [1]; 4 ppm alone
  Efficacy %: 2%
Botrytis cinerea [1]; 100 ppm alone
  Efficacy %: 0%

## Cc1ccc(C[C@H]2CON=C(c3cc(C)nnc3Oc3cccc(Cl)c3F)N2)c(Cl)c1 [Compound I-339, (5S)-3-[3-(3-chloro-2-fluoro-phenoxy)-6-methylpyridazin-4-yl]-5-(2-chloro-4-methylbenzyl)-5,6-dihydro-4H-1,2,4-oxadiazine]
Alternaria alternata; single compound
  inhibition of growth at 0.04 ppm: 100%
  inhibition of growth at 0.2 ppm: 100%
  inhibition of growth at 1 ppm: 100%
Cercospora beticola [6]; Cercospora beticola, 0.008 ppm, read-out: Efficacy %
  inhibition of growth at 0.008 ppm: 28%
Cercospora beticola [6]; Cercospora beticola, 0.04 ppm, read-out: Efficacy %
  inhibition of growth at 0.04 ppm: 0%
Cercospora beticola [6]; Cercospora beticola, 0.2 ppm, read-out: Efficacy %
  inhibition of growth at 0.2 ppm: 61%
Cercospora beticola [6]; Cercospora beticola, 1 ppm, read-out: Efficacy %
  inhibition of growth at 1 ppm: 98%
Cordana musae; 0.008 ppm
  inhibition of growth at 0.008 ppm: 63%
Cordana musae; 0.04 ppm
  inhibition of growth at 0.04 ppm: 100%
Cordana musae; 0.2 ppm
  inhibition of growth at 0.2 ppm: 100%
Cordana musae; 1 ppm
  inhibition of growth at 1 ppm: 100%
Fusarium culmorum
  inhibition of growth at 0.008 ppm: 0%
  inhibition of growth at 0.04 ppm: 0%
  inhibition of growth at 0.2 ppm: 14%
  inhibition of growth at 1 ppm: 99%
[2]; 0.008 ppm, read-out: Efficacy %
  inhibition of growth at 0.008 ppm: 2%
[2]; 0.04 ppm, read-out: Efficacy %
  inhibition of growth at 0.04 ppm: 0%
[2]; 0.2 ppm, read-out: Efficacy %
  inhibition of growth at 0.2 ppm: 0%
[2]; 1 ppm, read-out: Efficacy %
  inhibition of growth at 1 ppm: 0%
